Results on seven compounds are retold here after patent US10138237B2, “1,2,4-triazolo[4,3-a]pyridine compounds and their use as positive allosteric modulators of mGluR2 receptors” (Janssen Pharmaceutica NV, priority 2014, dated 2018).

In data set [1] the target is T1, human mGlu2 receptor (Homo sapiens, UniProt Q14416).
T1 construct: expressed in transfected cells; host or cells: CHO cells (membrane preparation)
Put plainly: [35S]GTPγS binding assay, hmGluR2 PAM. Format: biochemical. The settings on record: in presence of EC20 glutamate; for GTPγS - hmGluR2 PAM Emax / Emax: maximal % effect relative to the control glutamate response; for EC50: membranes from CHO cells with human mGlu2 receptor, -log EC50 in M, read-out: GTPγS - hmGluR2 PAM pEC50 (converted). An excerpt:
The compounds provided in the present invention are positive allosteric modulators of mGluR2. These compounds appear to potentiate glutamate responses by binding to an allosteric site other than the glutamate binding site. The response of mGluR2 to a concentration of glutamate is increased when compounds of Formula (I) are present. Compounds of Formula (I) are expected to have their effect substantially at mGluR2 by virtue of their ability to enhance the function of the receptor. The effects of positive allosteric modulators tested at mGluR2 using the [^35S]GTPγS binding assay method described below and which is suitable for the identification of such compounds, and more particularly the compounds according to Formula (I), are shown in Table 8.
[^35S]GTPγS Binding Assay
The [^35S]GTPγS binding assay is a functional membrane-based assay used to study G-protein coupled receptor (GPCR) function whereby incorporation of a non-hydrolysable form of GTP, [^35S]GTPγS (guanosine 5′-triphosphate, labelled with […] ^35S), is measured. The G-protein α subunit catalyzes the exchange of guanosine 5′-diphosphate (GDP) by guanosine triphosphate (GTP) and on activation of the GPCR by an agonist, [^35S]GTPγS, becomes incorporated and cannot be cleaved to continue the exchange cycle (Harper (1998) Current Protocols in Pharmacology 2.6.1-10, John Wiley & Sons, Inc.). […] Here we describe the use of the [^35S]GTPγS binding assay using membranes from cells transfected with the human mGlu2 receptor and adapted from Schaffhauser et al. (Molecular Pharmacology, 2003, […]) for the detection of the positive allosteric modulation (PAM) properties of the compounds of this invention.
CHO-cells were cultured to pre-confluence and stimulated with 5 mM butyrate for 24 h. Cells were then collected by scraping in PBS and cell suspension was centrifuged (10 min at 4000 RPM in benchtop centrifuge). Supernatant was discarded and pellet gently resuspended in 50 mM Tris-HCl, pH 7.4 by mixing with a vortex and pipetting up and down. The suspension was centrifuged at 16,000 RPM (Sorvall RC-5C plus rotor SS-34) for 10 minutes and the supernatant discarded. The pellet was homogenized in 5 mM Tris-HCl, pH 7.4 using an ultra-turrax homogenizer and centrifuged again (18,000 RPM, 20 min, 4° C.). The final pellet was resuspended in 50 mM Tris-HCl, pH 7.4 and stored at −80° C. in appropriate aliquots before use. Protein concentration was determined by the Bradford method (Bio-Rad, USA) with bovine serum albumin as standard.
Measurement of mGluR2 positive allosteric modulatory activity of test compounds was performed as follows. Test compounds and glutamate were diluted in assay buffer containing 10 mM HEPES acid, 10 mM HEPES salt, pH 7.4, 100 mM NaCl, 3 mM MgCl2 and 10 μM GDP. Human mGlu2 receptor-containing membranes were thawed on ice and diluted in assay buffer supplemented with 14 μg/ml saponin. Membranes were pre-incubated with compound alone or together with a predefined (˜EC20) concentration of glutamate (PAM assay) for 30 min at 30° C. After addition of [^35S]GTPγS (f.c. 0.1 nM), assay mixtures were shaken briefly and further incubated to allow [^35S]GTPγS incorporation on activation (30 minutes, 30° C.). Final assay mixtures contained 7 μg of membrane protein in 10 mM HEPES acid, 10 mM HEPES salt, pH 7.4, 100 mM NaCl, 3 mM MgCl2, 10 μM GDP and 2 μg/ml saponin. Total reaction volume was 200 μl. Reactions were terminated by rapid filtration through Unifilter-96 GF/B plates (Perkin Elmer, Massachusetts, USA) using a 96-well filtermate universal harvester. Filters were washed 6 times with ice-cold 10 mM NaH2PO4/10 mM Na2HPO4, pH 7.4. Filters were then air-dried, and 40 μl of liquid scintillation cocktail (Microscint-O) was added to each well. Membrane-bound radioactivity was counted in a Microplate Scintillation and Luminescence Counter from Perkin Elmer. […]

For data set [2], the system named is 6 Hz (32 mA, 3 s, corneal) limbic seizure in mice. Put plainly: Anticonvulsant studies - 6 Hz test in mice. Format: in vivo. The settings on record: Mus musculus, Score ≤ 2 (protected), 32 mA for 3 s. How it is done: Anticonvulsant Studies—6 Hz Test in Mice
At a predefined interval after drug treatment (standard: 0.5 h). individual mice were challenged with sufficient current (32 mA for 3 s; delivered through corneal electrodes) to elicit a limbic seizure. The manifestations of the “psychomotor” seizure were first described by Toman (Toman, J. E. P., 1951, “Neuropharmacologic considerations in psychic seizures” Neurology, 1, 444-460; Toman, J. E. P., Evertett, G. M., Richards, R. K., 1952, “The search for new drugs against epilepsy” Tex. Rep. Biol. Med. 10, 96-104). […] This may be characterized by immobility, or a lack of awareness regarding its environment as it goes directly into behaviours 2 and 3 (forepaw clonus or facial automatisms). The stun posture is most often upright, but the mouse may also fall on its side during a seizure; the fore limbs are often crossed and the hind limbs are spread wide apart. The “stunning” may occasionally be preceded by a few seconds of running with a rolling gait. 2) Forepaw clonus or automatism: usually resembles the mouse repeatedly raising its forepaw and then stomping it onto the ground. This is generally repeated several times, but must be repeated at least twice to be considered present. 3) Facial automatism: in the mouse best resembles jaw chomping or air biting; this also must occur at least twice to be considered present. 4) Elevated or Straub tail, which must be elevated to greater than a 45 degree angle to be considered present. The duration of the seizure varies from 5 to 75 s; at the end of the seizure, the animal rather suddenly resumes normal locomotion and exploratory behaviour. Each of the four above mentioned behaviours was scored as either absent (0) or present (1).

The subject of data set [3] is major depressive disorder with anxiety symptoms. The settings on record: adjunctive administration; adults with major depressive disorder with anxiety symptoms; cited from earlier work.
Data set [4] relates to smoking cessation-induced deficits. Conditions: versus placebo; cited from earlier work.
In data set [5] the test system is S-ketamine-induced negative symptoms. The settings on record: healthy volunteers and patients with predominant negative symptoms of schizophrenia; cited from earlier work.

T1 sequence (Q14416 19-872): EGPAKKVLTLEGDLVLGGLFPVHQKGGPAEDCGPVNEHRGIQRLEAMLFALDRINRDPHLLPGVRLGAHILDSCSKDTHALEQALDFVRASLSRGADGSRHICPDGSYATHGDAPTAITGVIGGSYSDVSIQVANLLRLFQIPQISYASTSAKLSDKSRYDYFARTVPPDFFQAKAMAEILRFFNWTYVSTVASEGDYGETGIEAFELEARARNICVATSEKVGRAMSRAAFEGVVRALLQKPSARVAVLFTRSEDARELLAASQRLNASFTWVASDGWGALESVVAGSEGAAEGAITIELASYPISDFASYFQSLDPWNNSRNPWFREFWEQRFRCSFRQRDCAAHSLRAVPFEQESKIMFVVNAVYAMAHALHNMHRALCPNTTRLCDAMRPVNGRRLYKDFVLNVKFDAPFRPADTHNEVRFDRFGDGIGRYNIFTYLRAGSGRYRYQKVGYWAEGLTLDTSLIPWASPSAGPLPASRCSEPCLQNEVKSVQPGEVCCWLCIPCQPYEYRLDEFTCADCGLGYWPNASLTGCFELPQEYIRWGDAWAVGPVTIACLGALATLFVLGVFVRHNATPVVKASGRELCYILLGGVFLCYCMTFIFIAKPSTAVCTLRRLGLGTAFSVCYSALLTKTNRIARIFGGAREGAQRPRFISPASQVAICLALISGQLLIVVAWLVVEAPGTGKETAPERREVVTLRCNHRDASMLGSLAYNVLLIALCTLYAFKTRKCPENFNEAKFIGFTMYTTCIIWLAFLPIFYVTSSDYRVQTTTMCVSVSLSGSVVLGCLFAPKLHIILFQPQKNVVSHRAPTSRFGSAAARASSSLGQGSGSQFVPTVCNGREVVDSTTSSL

On to `CCOCc1nnc2c(C(F)(F)F)c(C3CCN(c4ncc(Cl)c(OCC)n4)C3)ccn12` (single isomer, unassigned) [Co. No. 2a, 7-[(3*R)-1-(5-chloro-4-ethoxy-pyrimidin-2-yl)pyrrolidin-3-yl]-3-(ethoxymethyl)-8-(trifluoromethyl)-[1,2,4]triazolo[4,3-a]pyridine], for which the “GTPγS - hmGluR2 PAM Emax” value in data set [1] (listed as 2a) is given as 226.905%. In addition, in data set [1], the EC50 was 2.09 µM.

Usually Emax stands for the size of the effect at its maximum, as opposed to the concentration needed. In general, melting point refers to the temperature of the solid-liquid transition. `CCOCc1nnc2c(C(F)(F)F)c(C3CCN(c4ncc(Cl)c(OCC)n4)C3)ccn12` (stereo not shown) [Co. No. 2, 7-[1-(5-chloro-4-ethoxy-pyrimidin-2-yl)pyrrolidin-3-yl]-3-(ethoxymethyl)-8-(trifluoromethyl)-[1,2,4]triazolo[4,3-a]pyridine]: the melting point is 153.86 °C. Besides, in data set [1], the Emax turned out to be 345% and the EC50 was 0.017 µM.

By ED50 is commonly meant the midpoint of the dose-response relation. Read a low ED50 as greater potency. Turning to `CCOCc1nnc2c(C(F)(F)F)c(C3CCN(c4ncc(Cl)c(OCC)n4)C3)ccn12` (single isomer, unassigned) [Co. No. 2b, 7-[(3*S)-1-(5-chloro-4-ethoxy-pyrimidin-2-yl)pyrrolidin-3-yl]-3-(ethoxymethyl)-8-(trifluoromethyl)-[1,2,4]triazolo[4,3-a]pyridine], in data set [1] (listed as 2b), the “GTPγS - hmGluR2 PAM Emax” value stood at 295.62%. In data set [1], the EC50 is 0.00977 µM. For the same compound, the 50% effect level in data set [2] (route PO) (ED50) was put at a dose of 20 mg/kg.

Turning to `CCCCn1ccc(N2CCC(c3ccccc3)CC2)c(Cl)c1=O` [JNJ-40411813/ADX71149], in data set [3], the “efficacy on several secondary outcome measures of both depression and anxiety” value was “showed efficacy signals”; the “efficacy on the primary outcome measure” value is on record as “no efficacy signal was detected”. The “effect on craving and smoking cessation-induced deficits in attention and episodic memory” value in data set [4] was “reduce craving and improve smoking cessation-induced deficits in attention and episodic memory”. In addition, the “efficacy in S-ketamine-induced negative symptoms” value in data set [5] is “showed an efficacy signal”.

Turning to `CCOc1nc(N2CCC(c3ccn4c(CC5CC5)nnc4c3C(F)(F)F)C2)ncc1Cl` (stereo not shown) [Co. No. 1, 7-[1-(5-chloro-4-ethoxy-pyrimidin-2-yl)pyrrolidin-3-yl]-3-(cyclopropylmethyl)-8-(trifluoromethyl)-[1,2,4]triazolo[4,3-a]pyridine], in data set [1], the Emax is 234% and the EC50 is 0.00589 µM.

Take `CCOc1nc(N2CCC(c3ccn4c(CC5CC5)nnc4c3C(F)(F)F)C2)ncc1Cl` (single isomer, unassigned) [Co. No. 1b, 7-[(3*S)-1-(5-chloro-4-ethoxy-pyrimidin-2-yl)pyrrolidin-3-yl]-3-(cyclopropylmethyl)-8-(trifluoromethyl)-[1,2,4]triazolo[4,3-a]pyridine]: the melting point was found to be 168.29 °C. Besides, in data set [1], the “GTPγS - hmGluR2 PAM Emax” value was found to be 277.87% and the EC50 was 0.0038 µM. This compound came in with an ED50 in data set [2] (route PO) of 20 mg/kg. The compound also displayed an ED50 in data set [2] (route SC) of 3.79 mg/kg.

Compound `CCOc1nc(N2CCC(c3ccn4c(CC5CC5)nnc4c3C(F)(F)F)C2)ncc1Cl` (single isomer, unassigned) [Co. No. 1a, 7-[(3*R)-1-(5-chloro-4-ethoxy-pyrimidin-2-yl)pyrrolidin-3-yl]-3-(cyclopropylmethyl)-8-(trifluoromethyl)-[1,2,4]triazolo[4,3-a]pyridine] displayed a melting point of 167.64 °C. In addition, in data set [1], the “GTPγS - hmGluR2 PAM Emax” value was 148.44% and the EC50 is 0.214 µM.
